Source: US11450409B2, “Determination of NFkB pathway activity using unique combination of target genes” (InnoSIGN B.V., priority 2015, dated 2022)

What was measured:
[1] = tested on: NFkB cellular signaling pathway; assay: NFkB pathway activity prediction, Bayesian network model (evidence curated list), THP-1 monocytic cells; format: cell-based, human; settings: THP-1 cells treated with CoQ10 and stimulated with LPS (group 3)
Excerpt: (§1) Herein, an exemplary Bayesian network model as shown in FIG. 2 was first used to model the transcriptional program of the NFkB cellular signaling pathway in a simple manner. The model consists of three types of nodes: (a) a transcription factor (TF) element (with states “absent” and “present”) in a first layer 1; (b) target genes TG1, TG2, TGn (with states “down” and “up”) in a second layer 2, and; (c) measurement nodes linked to the expression levels of the target genes in a third layer 3. These can be microarray probesets PS1,1, PS1,2, PS1,3, PS2,1, PSn,1, PSn,m (with states “low” and “high”), as preferably used herein, but could also be other gene expression measurements such as RNAseq or RT-qPCR.
A suitable implementation of the mathematical model, herein, the exemplary Bayesian network model, is based on microarray data. The model describes (i) how the expression levels of the target genes depend on the activation of the TF element, and (ii) how probeset intensities, in turn, depend on the expression levels of the respective target genes. For the latter, probeset intensities may be taken from fRMA pre-processed Affymetrix HG-U133Plus2.0 microarrays, which are widely available from the Gene Expression Omnibus (GEO, www.ncbi.nlm.nih.gov/geo) and ArrayExpress (www.ebi.ac.uk/arrayexpress). […]

[2] = tested on: NFkB cellular signaling pathway; settings: reported in literature (Schmelzer and Döring 2010), human THP-1 monocytes; cited from earlier work
[3] = tested on: NFkB cellular signaling pathway; assay: NFkB pathway activity prediction, Bayesian network model (evidence curated list, 19, 13 and 7 target genes shortlists), NHBE samples from E-MTAB-1312 stimulated with TNFα; format: cell-based, human; settings: NHBE cells
Excerpt: as §1
A suitable implementation of the mathematical model, herein, the exemplary Bayesian network model, is based on microarray data. The model describes (i) how the expression levels of the target genes depend on the activation of the TF element, and (ii) how probeset intensities, in turn, depend on the expression levels of the respective target genes. For the latter, probeset intensities may be taken from fRMA pre-processed Affymetrix HG-U133Plus2.0 microarrays, which are widely available from the Gene Expression Omnibus (GEO, www.ncbi.nlm.nih.gov/geo) and ArrayExpress (www.ebi.ac.uk/arrayexpress).
Once the exemplary Bayesian network model is built and calibrated (see below), the model can be used on microarray data of a new sample by entering the probeset measurements as observations in the third layer 3, and inferring backwards in the model what the probability must have been for the TF element to be “present”. Here, “present” is considered to be the phenomenon that the TF element is bound to the DNA and is controlling transcription of the cellular signaling pathway's target genes, and “absent” the case that the TF element is not controlling transcription. […]

[4] = tested on: NFkB cellular signaling pathway; assay: NFkB pathway activity prediction, linear model (evidence curated list), NHBE samples from E-MTAB-1312 stimulated with TNFα; format: cell-based, human; settings: NHBE cells
Excerpt: Further to the exemplary Bayesian network model described above, an exemplary linear model was used to model the transcriptional program of the NFkB cellular signaling pathway in a simple manner. The structure of the model corresponded to the one shown in FIG. 3 of the published international patent application WO 2014/102668 A2 (“Assessment of cellular signaling pathway activity using linear combination(s) of target gene expressions”). More specifically, the exemplary linear model consisted of a TF node, a layer of target gene expression and a layer of mRNA expression levels and made use of continuous expression data, all target genes from the evidence curated list of target genes (see Table 3) with all probesets included and without the use of a pseudocount.
In the diagram, the vertical axis indicates the activity score, wherein positive values correspond to an active NFkB cellular signaling pathway and negative values correspond to a passive NFkB cellular signaling pathway. NHBE cell lines were unstimulated or stimulated with different TNFα concentrations for different timings. All unstimulated healthy cells (groups 1 to 4) are correctly predicted to have a passive NFkB cellular signaling pathway. […]

[5] = tested on: NFkB cellular signaling pathway; assay: NFkB pathway activity prediction, Bayesian network model (broad literature list), NHBE samples from E-MTAB-1312 stimulated with TNFα; format: cell-based, human; settings: NHBE cells
Excerpt: The list of target genes of the NFkB cellular signaling pathway constructed based on literature evidence following the procedure as described herein (“evidence curated list of target genes”, see Table 3) is compared here with a “broad literature list” of putative target genes of the NFkB cellular signaling pathway constructed not following above mentioned procedure. The alternative list is a compilation of genes attributed to responding to activity of the NFkB cellular signaling pathway provided within Thomson-Reuters's Metacore (last accessed Sep. 6, 2013). This database was queried for genes that are transcriptionally regulated directly downstream of the family of NFkB proteins, i.e., NFKB1 or p50/p105, NFKB2 or p52/p100, RELA or p65, REL, and RELB. […] A further selection was made based on the number of publication references supporting the attributed transcriptional regulation of the respective gene by the NFkB family. Genes that had ten or more references were selected for the broad literature list. In other words, no manual curation of the references and no calculation of an evidence score based on the experimental evidence was performed. […] The expression of the genes was measured by 56 probesets on the Affymetrix HG-U133Plus2.0 microarray platform which were selected using the Bioconductor plugin of R and one manually added probeset for DEFB4A, see Table 7. […]

[6] = 0.5 h stimulation, all TNFα concentrations (groups 5, 9, 13)

Row | Compound | predicted NFkB cellular signaling pathway activity [1] | effect on NFkB cellular signaling pathway activity [2] | predicted NFkB cellular signaling pathway activity ([3]; 2 and 4 hour stimulation, all concentrations tested) | predicted NFkB cellular signaling pathway activity ([3]; 0.5 h stimulation, low/medium/high TNFα (groups 5, 9, 13)) | predicted NFkB cellular signaling pathway activity ([3]; 24 hours stimulation (groups 8, 12, 16)) | predicted NFkB cellular signaling pathway activity score [4, 6] | predicted NFkB cellular signaling pathway activity score ([4]; stimulation times of 2 to 24 hours) | predicted NFkB cellular signaling pathway activity [5, 6] | predicted NFkB cellular signaling pathway activity ([5]; stimulation times of 2-24 hours)
1 | COC1=C(OC)C(=O)C(C/C=C(\C)CC/C=C(\C)CC/C=C(\C)CC/C=C(\C)CC/C=C(\C)CC/C=C(\C)CC/C=C(\C)CC/C=C(\C)CC/C=C(\C)CCC=C(C)C)=C(C)C1=O [CoQ10, Coenzyme Q10] | high predicted NFkB cellular signaling pathway activities | limited | – | – | – | – | – | – | –
2 | TNFα | – | – | full-blown NFkB cellular signaling pathway activity | too short for the NFkB cellular signaling pathway to become active | appears to lower the NFkB cellular signaling pathway activity | too short for the NFkB cellular signaling pathway to become active | resulted in an active NFkB cellular signaling pathway | too short for the NFkB cellular signaling pathway to become active | resulted in an active NFkB cellular signaling pathway
